{
  "source": "patent US6956030B2",
  "about": "“Use of mometasone furoate for treating upper airway diseases” (Schering Corporation, priority 1994, dated 2005)",
  "key": {"[1]": {"system": "patients with mild asthma"}, "[2]": {"system": "patients with asthma requiring treatment with inhaled corticosteroids", "assay": "Randomized double-blinded multicenter Phase II study, MDI BID for 4 weeks", "type": "in vivo", "procedure": "In a recently completed, randomized, double-blinded multicenter, Phase II study, 395 patients with asthma requiring treatment with inhaled corticosteroids were randomized to one of the five treatment groups: mometasone furoate (MDI 112 mcg/day, 400 mcg/day or 1000 mcg/day, beclomethasone dipropionate (BDP) 336 mcg/day, or placebo. All treatment regimens consisted of BID dosing for 4 weeks. PROVENTIL inhalation aerosol (albuterol, USP) was supplied as rescue medication.\nEfficacy was evaluated by spirometry and by physician and patient evaluation of asthma signs and symptoms. The forced expiratory volume in one second (FEV1), forced vital capacity (FVC), and forced expiratory flow between 25% to 75% (FEF25%−75%) were measured at each visit by the investigator. The peak expiratory flow rate (PEFR) was measured twice daily (AM and PM) by the patient. FEV1 at endpoint of treatment (last evaluable visit) was the primary measure of efficacy. The investigator (at all visits) and the patient (twice daily) rated wheezing, tightness in chest, shortness of breath, and cough on a scale from 0 (None) to 6 (Incapacitating). In addition, the investigator rated the overall condition of asthma on the same scale at each visit, and the patient kept a diary of the total number of asthma attacks each day, the number of night awakenings due to asthma, and the total number of puffs of Proventil (protocol-permitted rescue medication) used. The actual value and changes from Baseline were analyzed for each visit."}, "plasma cortisol": {"system": "plasma cortisol", "assay": "Phase I rising single-dose study, aqueous nasal spray suspension, 24-hour plasma cortisol", "type": "in vivo, healthy male volunteers", "details": "intranasal single doses 1000, 2000 and 4000 mcg at 11 pm", "procedure": "Several Phase I studies have been completed using the aqueous nasal spray suspension formulation of mometasone furoate monohydrate. In a randomized, third party-blinded, placebo-controlled rising single-dose safety and tolerance study, the aqueous nasal spray suspension formulation was administered to eight healthy male volunteers. Doses were administered at 11 pm, and plasma cortisol concentrations were measured during the following 24-hour period."}, "[3]": {"assay": "HPLC/radio-flow metabolite profiling of plasma, urine and fecal extracts after ^3H-MF", "type": "in vivo, normal healthy male volunteers", "excerpt": "The substantial minimization of the systemic effect of mometasone furoate administered intranasally or by oral inhalation has been measured by High Performance Liquid Chromatography (HPLC) metabolite profiling of plasma radioactivity of mometasone furoate, its substantially complete (>98%) first-pass metabolism in the liver and by a minimal reduction in cortisol secretion levels.\nPlasma, urine, expired air filters, Respirgard and fecal samples were collected and assayed for radioactivity content. The limit of quantitation (LOQ) for plasma radioactivity ranged from 0.103 to 0.138 ng eq/ml., except for the nasal spray treatment where the LOQ was 0.025 ng eq/ml. Selected plasma, urine and fecal samples were analyzed for metabolite profiles.\nSelected plasma, urine and fecal extracts were analyzed by high performance liquid chromatography (HPLC) with radio-flow monitoring to determine metabolite profiles. […] Approximately 1.5% of the 3 hr. plasma radioactivity was associated with parent drug indicating extensive first past metabolism and rapid inactivation by the liver. In contrast, following intravenous administration, approximately 39% of the 3 hr. plasma radioactivity was associated with parent drug. Approximately 12% and 33% of the 3 hr. plasma radioactivity was associated with parent drug following administration of the MDI and Gentlehaler, respectively. In general, the plasma concentrations of radioactivity following the nasal and oral suspension routes of administration were too low for metabolite profiling.\nHydrolysis of plasma and urine was performed with an enzyme preparation containing both β-glucuronidase and aryl sulfatase. These experiments yielded modest changes in the HPLC metabolite profiles that were consistent with the hydrolytic release of conjugated metabolites."}, "cortisol secretion": {"system": "cortisol secretion", "assay": "Multiple dose 28-day study, aqueous nasal spray, cortisol secretion", "type": "in vivo, normal male volunteers", "details": "intranasal 400 or 1600 mcg/day, 28 days", "excerpt": "In a follow-up multiple dose study, 48 normal male volunteers were empaneled in a randomized, third party-blinded, placebo and active-controlled parallel group study. Twelve volunteers in each of four groups received one of the following treatments for 28 days: A) Intranasal aqueous nasal spray suspension formulation of mometasone furoate monohydrate, 400 mcg/day; B) Intranasal aqueous nasal spray suspension formulation of mometasone furoate monohydrate, 1600 mcg/day; C) Intranasal placebo; D) Oral prednisone, 10 mg/day. All treatments were administered as once daily dosing in the morning."}},
  "note": "Like-named read-outs stand apart in the source and are kept apart here.",
  "data": [
    {"compound": "C[C@@H]1C[C@H]2[C@@H]3CCC4=CC(=O)C=C[C@]4(C)[C@@]3(Cl)[C@@H](O)C[C@]2(C)[C@@]1(OC(=O)c1ccco1)C(=O)CCl", "note": "[mometasone furoate]", "values": [
      {"measurement": "FEV1 compared to placebo", "setting": "[1]; 1 mg/day group, day 1", "result": "statistically significant, clinically meaningful improvement"},
      {"measurement": "mean increase in FEV1 versus placebo", "setting": "[1]; 1, 2 and 4 mg/day groups, every time point day 3 to day 28", "result": "statistically significantly greater than for the placebo group"},
      {"measurement": "8 a.m. plasma cortisol", "setting": "[1]; 1000 mcg or 2000 mcg daily, statistically significant compared to placebo", "result": "small decreases from Baseline on Days 15 and 21"},
      {"measurement": "8 a.m. plasma cortisol", "setting": "[1]; 4000 mcg daily, statistically different from placebo Day 3 through Day 28", "result": "greater decreases in plasma cortisol"},
      {"measurement": "increase in FEV1 from Baseline", "setting": "[1]; at a majority of time points", "result": "≥ 15", "unit": "%"},
      {"measurement": "response to ACTH infusion at post-treatment (Day 30)", "setting": "[1]; in vivo", "result": "significant increases from Baseline in plasma cortisol"},
      {"measurement": "pulmonary function measured by FEV1", "setting": "[1]; three treated groups, MDI twice daily", "result": "clinically meaningful increases in pulmonary function"},
      {"measurement": "total asthma scores, assessment of overall condition, therapeutic response", "setting": "[2]; all doses", "result": "superiority of all mometasone furoate doses relative to placebo"},
      {"measurement": "improvement of a.m. PEFR versus BDP", "setting": "[2]; all doses, final week of treatment", "result": "significantly better than 336 mg dose of BDP"},
      {"measurement": "FEV1 versus BDP 336 mcg/day", "setting": "[2]; two higher doses (400, 1000 mcg/day), Days 14, 21 and 28", "result": "superior to beclomethasone dipropionate"},
      {"measurement": "FEV1 versus low dose (112 mcg/day)", "setting": "[2]; two higher doses, Day 21 and Day 28", "result": "significantly superior to the low mometasone furoate dose"},
      {"measurement": "effect on 24-hour area under the curve plasma cortisol profile (AUC 0-24) compared to placebo", "setting": "plasma cortisol", "result": "did not significantly affect"},
      {"measurement": "extent of metabolism", "setting": "[3]; all routes of administration", "result": "extensively metabolized"},
      {"measurement": "first-pass metabolism in the liver", "setting": "[3]; in vivo", "result": "> 98", "unit": "%"},
      {"measurement": "detection of parent drug in plasma by metabolite profiling", "setting": "[3]; intravenous injection or oral solution, not after oral or nasal suspensions", "result": "detectable in plasma by metabolite profiling"},
      {"measurement": "bioavailability", "setting": "[3]; male, human, plasma, 1.03 mg/Subject, oral solution, extensive first pass metabolism, read-out: absolute bioavailability of unchanged mometasone furoate", "result": "< 1", "unit": "%"},
      {"measurement": "cortisol secretion compared to placebo", "setting": "cortisol secretion", "result": "Neither of the 2 doses of the mometasone furoate aqueous nasal spray formulation were associated with any changes in cortisol secretion"},
      {"measurement": "tolerability", "setting": "cortisol secretion", "result": "well tolerated"}
    ]}
  ]
}
